Experimental data: PMC11277145, “Wrinkle-Improving Effect of Novel Peptide That Binds to Nicotinic Acetylcholine Receptor” (International Journal of Molecular Sciences, 2024)
Where no end group is shown, it is not given here.

Legend:
nAChR subunit α1 = target: T1, nAChR subunit α1 (Homo sapiens, UniProt P02708); experiment: SPR binding affinity to immobilized nAChR subunit α1
T1 construct: purchased MyBioSource MBS963713
From the text: The ligand used recombinant human acetylcholine receptor subunit α1, Cat. No. MBS963713 (MyBioSource, San Diego, CA, USA), and SYN®-AKE used dipeptide diaminobutyroyl benzylamide (Cayman Chemical, Ann Arbor, MI, USA). All peptides used in this study were synthesized and supplied by Anygen (Gwangju, Republic of Korea). Phosphate-buffered saline (PBS), Tween 20, polyethylene glycol (weight-averaged molecular weight (MW) = 8000), LB agar, and bovine serum albumin (BSA) were purchased from Sigma-Aldrich (St. Louis, MO, USA). All reagents and cell culture media were purchased from WELGENE (Gyeongsan-si, Republic of Korea). The INCI name for the novel peptide is Palmitoyl Hexapeptide-93. It was synthesized by Incospharm (Daejeon, Republic of Korea), and clinical trials were conducted with a content of 500 ppm (w/v).
The SPR analysis was performed using a BIACORE 3000 (GE healthcare, Chicago, IL, USA). The nAChR subunit α1 was immobilized on a CM5 sensor chip by injecting the protein diluted in PBS (0.2 M phosphate buffer, 0.027 M KCl, 1.37 M NaCl, pH 7.4) at a concentration of 0.35 mg/mL at a flow rate of 5 μL min^−1. After, 5 μM peptide was injected into running buffer (20 mM Tris, pH 7) and its interaction with nAChR subunit α1 was measured at a flow rate of 30 μL min^−1. For kinetic experiments, peptides diluted in running buffer at concentrations ranging from […] to 200, 400, 600, 1000, and 1200 nM were injected at a flow rate of 30 μL min^−1 over the immobilized nAChR subunit α1. The association and dissociation kinetic rate constants (ka and kd) and the equilibrium […], KD, were calculated using BIAevaluation 3.1 software.

dermal fibroblasts = experiment: In vitro cell viability (MTT) assay; assay type: cell-based, human; settings: 24 h
Experimental: TE671 rhabdomyosarcoma cell line was purchased from Korea Cell Line Bank (Seoul, Republic of Korea). Dermal fibroblasts (Hs68) were purchased from American Type Culture Collection. Cells were cultured in Dulbecco’s Modified Eagle’s medium (DMEM) and medium containing 10% fetal bovine serum (FBS), 1% penicillin-streptomycin at 37 °C, and up to 5% CO2. Human skin keratinocytes (HEKn) were purchased from Thermo Fisher Scientific (Waltham, MA, USA) and cultured using keratinocyte growth medium, keratinocyte-SFM supplemented with epidermal growth factor (EGF) and bovine pituitary extract (BPE) at 37 °C, and up to 5% CO2.
The in vitro cytotoxicity of the novel peptide on cells was assessed using the MTT [(3-(4,5-dimethylthiazol-2-yl)-2,5-diphenyltetrazolium bromide] cell viability assay. Briefly, dermal fibroblasts were cultured in 24-well plates at a density of 1 × 10^5 cells/well for 18 h. After the medium was removed, the sample diluted in FBS-free medium was added and cultured for 24 h. Then, after the medium was removed, MTT solution was added at a concentration of […] and left to react for 3 h. Unreacted MTT was removed, 100 μL of DMSO was added to dissolve the formed reaction product, and the absorbance at 540 nm was measured and evaluated using an ELISA reader.

human skin = experiment: Human skin irritation patch test; assay type: in vivo
Experimental: The skin irritation test was conducted at CRA Korea Co., Ltd. in the Republic of Korea, with the approval serial number CRA21-HIPTRP1001. The patch used was the IQ Ultra Chamber (Chemotechnique Diagnostics, Vellinge, Sweden). The human skin primary irritation test was completed, with all 31 subjects participating until the end of the study. The test area for the product was the back (excluding the spinal area). The patch was applied for 24 h and then removed. The first evaluation was conducted 30 min after patch removal while waiting for the transient erythema to disappear due to removal, and the second evaluation was conducted 24 h after patch removal. The irritation criterion used a measurement evaluation method designed by Frosch and Kligman by applying the reading standards of the International Contact Dermatitis Research Group (ICDRG).

[1] = 0.1ppm, 30 min after patch removal, 31 subjects
[2] = 0.1ppm, 24 hours after patch removal, 31 subjects
[3] = 1ppm, 30 min after patch removal, 31 subjects
[4] = 1ppm, 24 hours after patch removal, 31 subjects
[5] = 10ppm, 30 min after patch removal, 31 subjects
[6] = 10ppm, 24 hours after patch removal, 31 subjects
[7] = 100ppm, 30 min after patch removal, 31 subjects
[8] = 100ppm, 24 hours after patch removal, 31 subjects

T1 sequence (P02708 21-457): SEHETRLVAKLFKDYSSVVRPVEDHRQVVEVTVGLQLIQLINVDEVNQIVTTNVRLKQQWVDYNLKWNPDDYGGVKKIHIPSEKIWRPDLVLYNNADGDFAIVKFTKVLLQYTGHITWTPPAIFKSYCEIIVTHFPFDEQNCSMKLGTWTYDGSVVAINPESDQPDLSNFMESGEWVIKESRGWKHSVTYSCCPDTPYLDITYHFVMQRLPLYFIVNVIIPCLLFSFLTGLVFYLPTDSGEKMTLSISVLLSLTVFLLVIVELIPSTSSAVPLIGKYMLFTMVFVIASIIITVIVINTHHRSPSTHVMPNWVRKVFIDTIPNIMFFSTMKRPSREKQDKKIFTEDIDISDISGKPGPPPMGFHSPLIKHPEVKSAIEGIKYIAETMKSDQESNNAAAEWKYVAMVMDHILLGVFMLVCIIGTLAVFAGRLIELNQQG

Substance: RRGVRR [Peptide 289]
- kon (nAChR subunit α1; SPR, 200-1200 nM, 20 mM Tris pH 7, 30 μL/min, read-out: ka): 14900 M⁻¹ s⁻¹
- Kd (nAChR subunit α1; binding affinity to nAChR subunit α1, bound given in abstract, SPR): < 1000 nM
- Kd (nAChR subunit α1; equilibrium dissociation constant (KD), SPR, 200-1200 nM, 20 mM Tris pH 7, BIAevaluation 3.1): 609 nM
- koff (nAChR subunit α1; pH 7, read-out: dissociation rate constant (kd)): 0.00906 s⁻¹
- cytotoxicity (dermal fibroblasts; 0.1 ppm to 100 ppm, dermal fibroblasts, 540 nm): no toxicity
- cytotoxicity (dermal fibroblasts; up to 100 μg/mL, fibroblasts): non-cytotoxic
- skin irritation judgement (human skin; 0.1ppm): No irritation
- skin reactivity score (human skin; 0.1 ppm to 100 ppm, 24 h patch, back, 31 subjects): 0.0 ± 0.00
- skin irritation (human skin; 0.1 ppm to 100 ppm, Frosch and Kligman and COLIPA criteria, 31 subjects): non-irritation
- Average response (%) (human skin; 0.1ppm, 31 subjects): 0.0±0.00%
- subjects with 1+ reaction (human skin; [1]): 0
- subjects with 2+ reaction (human skin; [1]): 0
- subjects with 3+ reaction (human skin; [1]): 0
- subjects with ± reaction (human skin; [1]): 0
- subjects with 1+ reaction (human skin; [2]): 0
- subjects with 2+ reaction (human skin; [2]): 0
- subjects with 3+ reaction (human skin; [2]): 0
- subjects with ± reaction (human skin; [2]): 0
- skin irritation judgement (human skin; 1ppm): No irritation
- Average response (%) (human skin; 1ppm, 31 subjects): 0.0±0.00%
- subjects with 1+ reaction (human skin; [3]): 0
- subjects with 2+ reaction (human skin; [3]): 0
- subjects with 3+ reaction (human skin; [3]): 0
- subjects with ± reaction (human skin; [3]): 0
- subjects with 1+ reaction (human skin; [4]): 0
- subjects with 2+ reaction (human skin; [4]): 0
- subjects with 3+ reaction (human skin; [4]): 0
- subjects with ± reaction (human skin; [4]): 0
- skin irritation judgement (human skin; 10ppm): No irritation
- Average response (%) (human skin; 10ppm, 31 subjects): 0.0±0.00%
- subjects with 1+ reaction (human skin; [5]): 0
- subjects with 2+ reaction (human skin; [5]): 0
- subjects with 3+ reaction (human skin; [5]): 0
- subjects with ± reaction (human skin; [5]): 0
- subjects with 1+ reaction (human skin; [6]): 0
- subjects with 2+ reaction (human skin; [6]): 0
- subjects with 3+ reaction (human skin; [6]): 0
- subjects with ± reaction (human skin; [6]): 0
- skin irritation judgement (human skin; 100ppm): No irritation
- Average response (%) (human skin; 100ppm, 31 subjects): 0.0±0.00%
- subjects with 1+ reaction (human skin; [7]): 0
- subjects with 2+ reaction (human skin; [7]): 0
- subjects with 3+ reaction (human skin; [7]): 0
- subjects with ± reaction (human skin; [7]): 0
- subjects with 1+ reaction (human skin; [8]): 0
- subjects with 2+ reaction (human skin; [8]): 0
- subjects with 3+ reaction (human skin; [8]): 0
- subjects with ± reaction (human skin; [8]): 0
